Measurements as given in patent US20070166712A1, “Cyp2s1 as target for diagnosis and therapy of skin diseases” (UNIVERSITY COURT OF THE UNIVERSITY OF DUNDEE, priority 2003, published 2007).

Legend:
human liver microsomes = experiment: atRA metabolism by human liver microsomes (HPLC); assay type: in vitro ADME; details: confirmed with authentic standard
Procedure: (§1) E. Coli membranes co-expressing CYP2S1 and CPR were incubated with atRA as previously described^17. CYP2S1-derived atRA metabolites (FIG. 4A) were separated by HPLC and identified by comparison with the elution profile of human liver microsomes (FIG. 4B). Control incubations were performed in the absence of the NADPH regenerating system (FIG. 4C).
(§2) The CYP2S1 cDNA, a generous gift from Professor Oliver Hankinson, Department of Pathology and Laboratory Medicine, Jonsson Comprehensive Cancer Centre and Molecular Biology Institute, UCLA, Los Angeles was constructed and co-expressed with CPR in E. Coli as previously described^16. CYP2S1 metabolism of atRA was performed using HPLC analysis as previously described^17, using E. coli membranes co-expressing CYP2S1 and CPR and an NADPH regenerating system. Control reactions were performed in the absence of CYP2S1 and in the absence of the NADPH regenerating system. CYP2S1 metabolites were identified by comparison with elution times and UV profiles of atRA metabolites generated by human liver microsomes which had previously been identified using authentic standards.

CYP2S1 mRNA expression = CYP2S1 mRNA expression in skin after topical chemicals (Taqman quantitative real-time RT-PCR); assay type: in vivo, human; details: healthy volunteers, occluded 96 hours on buttock skin, vs control skin
CYP1A1 mRNA expression = CYP1A1 mRNA expression in skin of volunteer panel after topical chemicals; assay type: in vivo, human; details: topical application, data not shown
CYP3A5 = experiment: Cutaneous expression and regulation by ATRA of additional CYP450s; assay type: in vivo
CYP2S1 = biological target: T1, CYP2S1 (Homo sapiens, UniProt Q96SQ9); experiment: atRA metabolism by heterologously expressed CYP2S1 (E. coli membranes co-expressing CYP2S1 and CPR, HPLC); assay type: in vitro ADME; details: NADPH regenerating system
T1 construct: made in house; host or cells: E. coli (membrane fraction)
T1 sequence (Q96SQ9 1-504): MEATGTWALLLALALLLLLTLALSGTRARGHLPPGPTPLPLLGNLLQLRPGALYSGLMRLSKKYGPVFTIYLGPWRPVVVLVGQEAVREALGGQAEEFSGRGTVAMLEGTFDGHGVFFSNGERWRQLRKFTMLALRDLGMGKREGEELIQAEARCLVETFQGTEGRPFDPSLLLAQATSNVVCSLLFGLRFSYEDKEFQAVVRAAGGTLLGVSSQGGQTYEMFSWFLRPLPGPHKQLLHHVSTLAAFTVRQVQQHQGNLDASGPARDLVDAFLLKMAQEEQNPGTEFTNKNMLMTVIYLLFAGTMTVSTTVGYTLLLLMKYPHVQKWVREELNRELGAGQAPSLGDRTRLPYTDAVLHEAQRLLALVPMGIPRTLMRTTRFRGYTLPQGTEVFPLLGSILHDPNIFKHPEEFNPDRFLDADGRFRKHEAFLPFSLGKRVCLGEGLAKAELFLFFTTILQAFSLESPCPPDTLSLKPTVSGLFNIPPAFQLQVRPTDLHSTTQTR
Procedure: as §1, §2

`CC1=C(/C=C/C(C)=C/C=C/C(C)=C/C(=O)O)C(C)(C)CCC1` [atRA, all-trans retinoic acid] was tested, and the “formation of 4-oxo RA metabolite by human liver microsomes” value (human liver microsomes) was “produced by human liver microsomes”, the “individuals showing marked CYP2S1 induction (mRNA)” value (CYP2S1 mRNA expression) was 6/14 and the “effect on CYP1A1 mRNA expression” value (CYP1A1 mRNA expression) was “suppressed”. For the same molecule, the “inducibility of CYP3A5 in human skin” value (CYP3A5) was “not inducible”, the “atRA metabolites produced by CYP2S1” value (CYP2S1) was 4-OH-RA and 5,6-epoxy RA and the “formation of 4-oxo RA metabolite by CYP2S1” value (CYP2S1) was “did not appear to produce”.
